# How the values were obtained:
# [1] = test system: peritoneal polymorphonuclear cells and alveolar macrophages; assay: Phagocytosis and conidiocidal activity of effector phagocytes pulsed with live Aspergillus conidia; format: cell-based, mice; details: 10 and 100 nM 1 hour before 2 hours pulsing with conidia (FIG. 4B)
# Experimental: Murine polymorphonuclear cells (PMNs) from C57BL/6 or p47phox-/- uninfected mice were positively selected with magnetic beads (Miltenyi Biotech) from the peritoneal cavity of mice 8 hours after the intraperitoneal injection of 1 ml endotoxin-free 10% thioglycolate solution. On fluorescence-activated cell sorting (FACS) analysis, Gr-1+PMNs were 98% pure and stained positive for the CD11b myeloid marker. Monolayers of plastic-adherent macrophages were obtained, after 2 hours plastic adherence, from lung of C57BL/6 and p47phox-/- uninfected mice. Cells were pre-treated for 1 hour with different concentrations of Tβ4 (10 and 100 nM) before pulsing with A. fumigatus conidia (1:3 cell/fungus ratio for phagocytosis and 10:1 cell/fungus for conidiocidal activity) for 120 min at 37° C. The percentage of CFU inhibition (mean±SD) was determined as described previously (Bellocchio et al., 2004 TLRs govern neutrophil activity in aspergillosis. J Immunol 173:7406-7415).
# [2] = test system: C57BL/6 and p47phox-/- mice subjected to DSS-induced colitis; assay: DSS-induced colitis in C57BL/6 and p47phox-/- mice; format: in vivo
# Experimental: In vivo models mimicking human pathology such as lung and gut inflammation were prepared. A model of lung inflammation was tested using C57BL/6 and p47phox-/- mice. The mice were infected with A. fumigatus intranasally and treated them with Tβ4 for 7 consecutive days starting a week after the infection. LC3-II (FIG. 1F) and DAPK1 (FIG. 1G) expression were both defective in p47phox-/- mice, but restored by Tβ4 and ablated (LC3-II) upon siTβ4 (FIGS. 10A and 10B). In addition, gut inflammation was tested using the same mouse model. Acute colitis in p47phox-/- mice was initiated by administering […] in drinking water for 7 days followed by 7 days of DSS-free autoclaved water. Subsequently, Tβ4 was therapeutically administered daily for 7 days, after DSS treatment, at the time at which mice started to lose weight. Consistent with previous findings (de Luca et al., 2014), LC3-II (FIG. 1H) and DAPK1 (FIG. 1I) expression were both defective in the colon ofp47phox-/- mice with colitis as opposed to WT mice but restored upon treatment with T134 (FIGS. 1H and 1I). DAPK1 expression in colon lysates of C57BL/6 and p47^phox-/- mice subjected to DSS-induced colitis for a week and treated intraperitoneally with 5 mg/kg Tβ4 for 7 consecutive days after DSS treatment, n=6-10 mice per group. Data are presented as mean ±SD and are representative of two experiments. Mice were categorized as Naive (uninfected or untreated mice) or None (infected mice). For immunoblotting, normalization was performed on mouse β-actin or Gapdh and corresponding pixel density or ratio is depicted. For immunofluorescence, nuclei were counterstained with DAPI. Photographs were taken with a high-resolution microscope (Olympus BX51), 40× and 100× magnification. LC3 mean fluorescence intensity (MFI) was measured with the ImageJ software. In FIGS. 1F-1H, n=6-10 mice per group. Data are presented as mean ±SD and are representative of two experiments. Naïve, uninfected or untreated mice. None, infected mice.
# Dextran Sulfate Sodium (DSS) (2.5% wt/vol, […]; MP Biomedicals) was administered in drinking water ad libitum for 7 days. Fresh solution was replaced on day 3. Mice were injected with 5 mg/kg of Tβ4 every day intraperitoneally in concomitance with (days 0→7) or after (days 7→14) DSS administration. Control received the diluent alone. Weight loss, stool consistency, and faecal blood were recorded daily. Upon necropsy (7 and 14 days after DSS administration), tissues were collected for histology and cytokine analysis. Colonic sections were stained with Hematoxylin and Eosin. Colitis disease activity index was calculated daily for each mouse based on weight loss, occult blood, and stool consistency. A score of 1-4 was given for each parameter as described (McNamee et al., 2011 Interleukin 37 expression protects mice from colitis. Proc Natl Acad Sci U S A 108:16711-16716).
# For immunoblotting, organs or cells were lysed in RIPA buffer. The lysate was separated in sodium dodecyl sulfate-polyacrylamide gel electrophoresis (SDS-PAGE) and transferred to a nitrocellulose membrane. The membranes were incubated with the following primary antibodies at 4 °C overnight: anti-DAPK1 (antibodies-online.com), anti-Rubicon (Cell Signaling), anti-Tβ4 and anti-NLRP3 (Abcam), anti-LC3B (Cell Signaling or Abcam). Normalization was performed by probing the membranes with mouse anti-β-actin and anti-Gapdh antibodies (Sigma-Aldrich). Normalization was performed on mouse β-actin or Gapdh and corresponding pixel density is depicted. LC3-II band density was normalized to LC3-I to obtain ratio. Chemiluminescence detection was performed with LiteAblot Plus chemiluminescence substrate (EuroClone S.p.A.), using the ChemiDocTM XRS+ Imaging System (Bio-Rad) and quantification was obtained by densitometry image analysis using Image Lab 5.1 software (Bio-Rad).
# Real-time RT-PCR was performed using CFX96 Touch Real-Time PCR Detection System and SYBR Green chemistry (Bio-Rad). […]
substance,measurement,setting,value
Thymosin β4 [Tβ4],fungal killing of effector phagocytes (conidiocidal activity),[1],potentiate
same,phagocytosis of effector phagocytes,[1],potentiate
same,HIF-1α expression in the colon,[2]; 5 mg/kg i.p. 7 consecutive days after DSS (FIG. 2H),restoration
same,weight change,[2]; Tβ4 5 mg/kg i.p. after DSS (FIG. 5A),weight regain
same,disease activity index scores,[2]; Tβ4 5 mg/kg i.p. after DSS (FIG. 5B),decreased
same,inflammatory pathology and tissue architecture (H&E colon histology),[2]; Tβ4 5 mg/kg i.p. after DSS (FIG. 5C),amelioration
same,NLRP3 expression in colon,[2]; Tβ4 5 mg/kg i.p. after DSS (FIG. 5D),decreased
same,anti-inflammatory cytokines (TGF-β),[2]; colon (FIG. 5G),up-regulation
same,Cldn1 expression,[2]; colon (FIG. 5H),greatly promoted
same,Ocln expression,[2]; colon (FIG. 5H),greatly promoted
same,"inflammatory cytokine levels (IL-1β, MPO, TNF-α, IL-17A)",[2]; colon homogenates (FIGS. 5E and 5F),decreased
same,"expression of angiogenesis-related genes (Angpt2, Tie2, Vegfa, Fgf2, Epo, Cxcr4)",[2]; colon homogenates of p47phox-/- mice (FIG. 3D),upregulation
same,LC3-II expression in colon,"[2]; p47phox-/- mice with colitis, 5 mg/kg i.p. 7 consecutive days after DSS (FIG. 1H)",restored
same,DAPK1 expression in colon,"[2]; p47phox-/- mice with colitis, 5 mg/kg i.p. 7 consecutive days after DSS (FIG. 1I)",restored

# From US20220241378A1, “COMPOSITIONS AND METHODS FOR TREATMENT OF CHRONIC GRANULOMATOUS DISEASE” (priority 2019, published 2022)
